Like-named read-outs stand apart in the source and are kept apart here.
Test system: Sham transfected HEK293T/G16gust44 cells
Procedure: The above procedure was also carried out for HEK293T/G16gust44 cells, formed as described in WO 2004/055048 with the exception that no DNA was added during the process. These cells are termed Sham transfected cells.
On day 0, the HEK293T cells formed as described in example 2, were seeded in antibiotic-free growth medium (standard DMEM with 10% (v/v) heat-inactivated fetal bovine serum, 2 mM L-glutamine […], 100 units/ml penicillin, and 100 [g/ml streptomycin) into black wall/clear bottom 96-well plates, coated with poly(ethylenimine) (0.005% v/v) at a concentration of 15,000 cells per well and incubated for 48 hours in humidified atmosphere (37° C., 5% CO2).
Prior to performing the assay, the growth medium was discarded and the cells were left in a humidified atmosphere (37° C., 5% CO2) for 1 hour with 50 μl of loading buffer consisting of 1.5 μM Fluo-4 AM and […] probenicid (Sigma-Aldrich, St. Louis, Mo., US) in DMEM.
Following this the 96-well plate was washed 5 times with 100 μl of assay buffer (130 mM NaCl, 5 mM KCl, 10 mM 4-(2-hydroxyethyl)-1-piperazineethanesulfonic acid (HEPES), 2 mM CaCl2, and 5 mM dextrose, pH 7.4) per well, using an automated plate washer (BioTek).
The plate was then further incubated for 30 minutes at room temperature in the dark to allow for complete de-esterification of the Fluo-4. Afterwards the plate was washed 5 times with 100 μl of assay buffer per well, and reconstituted with 100 μl of assay buffer per well.
Cyclamate solutions ranging in concentration from 250 mM to 800 mM were prepared in assay buffer.
To test receptor activation 20 μl of one of these cyclamate test solutions was added to the assay buffer of at least one well of the 96 well plate. This step was repeated until all cyclamate solutions of differing concentrations had been added to at least one well. Care was taken to ensure that only one cyclamate solution was added per well. The resulting cyclamate concentrations in the well plates ranged in concentration from 25 mM to 80 mM (This is due to the dilution of the cyclamate solution in the assay buffer present in the well).
For assay reading, the plate was placed in a Fluorometric Imaging Plate Reader (FLIPR) (FLIPR-TETRA™, Molecular Devices, Sunnyvale, Calif., US).
For each well of the plate fluorescence was continuously monitored for 20 seconds to give a signal baseline (averaged to give F0) prior to cyclamate addition and for 120 seconds after cyclamate addition. The change in signal divided by F0 gives ΔF/F0 indicated in the table, with ΔF being the maximum signal occurring within the 120 seconds minus the minimum signal (occurring within the 120 seconds after cyclamate addition.
As a control the above procedure was also carried out for the sham transfected cells formed as described in example 2.

## O=S(=O)(O)NC1CCCCC1 [Cyclamate, cyclamate]
Cyclamate 25 mM in well
  Cyclamate Average ΔF/F0, Sham Transfected: 0.186
Cyclamate 30 mM in well
  Cyclamate Average ΔF/F0, Sham Transfected: 0.182
Cyclamate 35 mM in well
  Cyclamate Average ΔF/F0, Sham Transfected: 0.198
Cyclamate 40 mM in well
  Cyclamate Average ΔF/F0, Sham Transfected: 0.204
Cyclamate 45 mM in well
  Cyclamate Average ΔF/F0, Sham Transfected: 0.194
Cyclamate 50 mM in well
  Cyclamate Average ΔF/F0, Sham Transfected: 0.2
Cyclamate 55 mM in well
  Cyclamate Average ΔF/F0, Sham Transfected: 0.182
Cyclamate 60 mM in well
  Cyclamate Average ΔF/F0, Sham Transfected: 0.16
Cyclamate 65 mM in well
  Cyclamate Average ΔF/F0, Sham Transfected: 0.17
Cyclamate 70 mM in well
  Cyclamate Average ΔF/F0, Sham Transfected: 0.14
Cyclamate 75 mM in well
  Cyclamate Average ΔF/F0, Sham Transfected: 0.11
Cyclamate 80 mM in well
  Cyclamate Average ΔF/F0, Sham Transfected: 0.178

Reference: patent US20130123135A1, “Methods To Identify Modulators of TAS2R48 Receptors” (priority 2010, published 2013)
